Reference: patent US20250066288A1, “DIHYDRAZIDE-DIHYDRAZONE COMPOUNDS WITH ADAMANTYL MOIETY AND A PROCESS FOR SYNTHESIS OF THE SAME” (priority 2022, published 2025)
Read-outs that look alike come from different tables or passages of the source.

What was measured:
[1] = tested on: Candida Albicans (ATCC 10231); assay: Antimicrobial activity test by tube dilution method, fungi; format: cell-based; details: for killing at 50000 µg/mL: Candida albicans, ATCC10231, 0.05 h, read-out: C. albicans % killing
Protocol: (§1) The antimicrobial activity of the compounds was determined by tube dilution method. Powdery compounds were taken in closed glass vials and were tested against Staphylococcus aureus (ATCC 6538) (bacteria) and Candida Albicans (ATCC 10231) (Fungi). 50 mg of the sample was taken in 1 ml of DMSO and the contact time for the sample was maintained as 3 minutes. The medium for microorganisms was Soyabean Casein Digest Agar for bacteria and Sabouraud's Dextrose Agar for fungi. The incubation time for bacteria was 2 days at 30-35° C. while for fungi was 3-5 days at 20-25° C.

[2] = tested on: Staphylococcus aureus (ATCC 6538); assay: Antimicrobial activity test by tube dilution method, bacteria; format: cell-based; details: for killing at 50000 µg/mL: Staphylococcus aureus, ATCC6538, 0.05 h, read-out: S. aureus % killing
Protocol: as §1

[3] = 50 mg sample in 1 ml DMSO, contact time 3 minutes, Sabouraud's Dextrose Agar, 3-5 days at 20-25° C.
[4] = 50 mg sample in 1 ml DMSO, contact time 3 minutes, Soyabean Casein Digest Agar, 2 days at 30-35° C.

Structure (SMILES) | C. albicans Final Count [1, 3] | killing at 50000 µg/mL [1, 3] | S. aureus Final Count [2, 4] | killing at 50000 µg/mL [2, 4] | killing at 50000 µg/mL [1] | killing at 50000 µg/mL [2] | C. albicans % killing [1, 3] | S. aureus % killing [2, 4]
CCOc1ccc(/C=N/NC(=O)C23CC4CC(C2)CC(C(=O)N/N=C/c2ccc(OCC)cc2)(C4)C3)cc1 [Compound 5n, Bis[N′-(4-ethoxy)benzylidene]adamantane-1,3-dicarbohydrazide] | 0 | 100% | 10 | 100% | – | – | – | –
Cc1ccc(/C=N/NC(=O)C23CC4CC(C2)CC(C(=O)N/N=C/c2ccc(C)cc2)(C4)C3)cc1 [Compound 5i, Bis[N′-(4-methyl)benzylidene]adamantane-1,3-dicarbohydrazide] | 0 | 100% | 3120000 | 85% | – | – | – | –
COc1cc(/C=N\NC(=O)C23CC4CC(C2)CC(C(=O)N/N=C/c2ccc(O)c(OC)c2)(C4)C3)ccc1O [Compound 5b, Bis [N′-(3-methoxy, 4-hydroxy)benzylidene]adamantane-1,3-dicarbohydrazide] | 0 | 100% | 1680000 | 90.3% | – | – | – | –
C/C(=N/NC(=O)C12CC3CC(C1)CC(C(=O)N/N=C(\C)c1cc(C)ccc1O)(C3)C2)c1cc(C)ccc1O [Compound 5c, Bis [N′-(1-(2-hydroxy, 5-methyl phenyl)ethylidene)]adamantane-1,3-dicarbohydrazide] | 10 | 100% | 2980000 | 82.9% | – | – | – | –
O=C(N/N=C/c1ccc([N+](=O)[O-])o1)C12CC3CC(C1)CC(C(=O)N/N=C/c1ccc([N+](=O)[O-])o1)(C3)C2 [Compound 5g] | 0 | – | 10 | – | 100% | 100% | – | –
COc1ccc(/C=N\NC(=O)C23CC4CC(C2)CC(C(=O)N/N=C/c2ccc(OC)c(OC)c2)(C4)C3)cc1OC [Compound 5d] | 0 | 100% | 10300000 | 50.2% | – | – | – | –
O=C(NN=Cc1ccc(Cl)c([N+](=O)[O-])c1)C12CC3CC(C1)CC(C(=O)NN=Cc1ccc(Cl)c([N+](=O)[O-])c1)(C3)C2 [Compound 5o, Bis[N′-(3-nitro,4-chloro)benzylidene]adamantane-1,3-dicarbohydrazide] | 0 | – | 18400000 | – | – | – | 100.00% | 9.36%
CC(=NNC(=O)C12CC3CC(C1)CC(C(=O)NN=C(C)c1ccc(Cl)c([N+](=O)[O-])c1)(C3)C2)c1ccc(Cl)c([N+](=O)[O-])c1 [Compound 5r, Bis[N′-(1-(3-nitro,4-chloro)ethylidene)]adamantane-1,3-dicarbohydrazide] | 0 | – | 5100000 | – | – | – | 100.00% | 74.24%
O=C(N/N=C/c1ccc(Br)cc1)C12CC3CC(C1)CC(C(=O)N/N=C/c1ccc(Br)cc1)(C3)C2 [Compound 5p, Bis[N′-(4-bromo)benzylidene]adamantane-1,3-dicarbohydrazide] | 0 | 100% | 2310000 | 88.7% | – | – | – | –
O=C(N/N=C\c1ccc2ccccc2c1)C12CC3CC(C1)CC(C(=O)N/N=C/c1ccc4ccccc4c1)(C3)C2 [Compound 5f] | 0 | 100% | 16000000 | 20.4% | – | – | – | –
O=C(N/N=C\c1cccs1)C12CC3CC(C1)CC(C(=O)N/N=C/c1cccs1)(C3)C2 [Compound 5m] | 0 | 100% | 1230000 | 93.4% | – | – | – | –
O=C(N/N=C/c1ccc(O)cc1)C12CC3CC(C1)CC(C(=O)N/N=C/c1ccc(O)cc1)(C3)C2 [Compound 5j, Bis[N′-(4-hydroxy)benzylidene]adamantane-1,3-dicarbohydrazide] | 0 | 100% | 550000 | 97.2% | – | – | – | –
C/C(=N\NC(=O)C12CC3CC(C1)CC(C(=O)N/N=C(\C)c1ccc(O)cc1)(C3)C2)c1ccc(O)cc1 [Compound 5k, Bis[N′-(1-(4-hydroxyphenyl)ethylidene)]adamantane-1,3-dicarbohydrazide] | 0 | 100% | 7500000 | 60.3% | – | – | – | –
O=C(N/N=C\c1ccc([N+](=O)[O-])cc1)C12CC3CC(C1)CC(C(=O)N/N=C/c1ccc([N+](=O)[O-])cc1)(C3)C2 [Compound 5a, Bis [N′-(4-nitro)benzylidene]adamantane-1,3-dicarbohydrazide] | 0 | – | 0 | – | 100% | 100% | – | –
CCOc1ccc(/C(C)=N\NC(=O)C23CC4CC(C2)CC(C(=O)N/N=C(\C)c2ccc(OCC)cc2)(C4)C3)cc1 [Compound 5e, Bis [N′-(1-(4-ethoxy)ethylidene)]adamantane-1,3-dicarbohydrazide] | 0 | 100% | 16400000 | 16.8% | – | – | – | –
COc1cc(/C=N/NC(=O)C23CC4CC(C2)CC(C(=O)N/N=C/c2cc(Br)c(O)c(OC)c2)(C4)C3)cc(Br)c1O [Compound 5l, Bis[N′-(3-bromo,4hydroxy,5-methoxy)benzylidene]adamantane-1,3-dicarbohydrazide] | 0 | 100% | 0 | 100% | – | – | – | –
COc1ccc(/C=N/NC(=O)C23CC4CC(C2)CC(C(=O)N/N=C/c2ccc(OC)cc2)(C4)C3)cc1 [Compound 5q, Bis[N′-(4-methoxy)benzylidene]adamantane-1,3-dicarbohydrazide] | 0 | 100% | 14400000 | 26.1% | – | – | – | –
COc1cc(/C=N\NC(=O)C23CC4CC(C2)CC(C(=O)N/N=C/c2cc(OC)c(O)c([N+](=O)[O-])c2)(C4)C3)cc([N+](=O)[O-])c1O [Compound 5h, Bis [N′-(3-nitro, 4-hydroxy, 5-methoxy)benzylidene]adamantane-1,3-dicarbohydrazide] | 0 | – | 0 | – | 100% | 100% | – | –
